4 molecules from ChEMBL document CHEMBL1125260, “Binding of substituted and conformationally restricted derivatives of N-(3-phenyl-n-propyl)-1-phenyl-2-aminopropane at sigma-receptors” (J Med Chem, 1991) can be followed below.

The target in assay [1] is T1, Adrenergic receptor beta (Rattus norvegicus, UniProt P18090+P10608+P26255). Briefly: In vitro binding affinity at beta adrenergic receptor binding site receptors in rat brain membrane using [3H]dihydroalprenolol as radioligand. In kind it is cell membranes.
A further assay has as its target D(1A) dopamine receptor (Rattus norvegicus, UniProt P18901). The experiment in a line: In vitro binding affinity at Dopamine receptor D1 using [3H]SCH-23390 as radioligand.
In another assay the target is D(2) dopamine receptor (Rattus norvegicus, UniProt P61169). The experiment in a line: In vitro binding affinity at Dopamine receptor D2 in rat striata using [3H]domperidone as radioligand.
D(2) dopamine receptor, sequence (P61169 whole entry): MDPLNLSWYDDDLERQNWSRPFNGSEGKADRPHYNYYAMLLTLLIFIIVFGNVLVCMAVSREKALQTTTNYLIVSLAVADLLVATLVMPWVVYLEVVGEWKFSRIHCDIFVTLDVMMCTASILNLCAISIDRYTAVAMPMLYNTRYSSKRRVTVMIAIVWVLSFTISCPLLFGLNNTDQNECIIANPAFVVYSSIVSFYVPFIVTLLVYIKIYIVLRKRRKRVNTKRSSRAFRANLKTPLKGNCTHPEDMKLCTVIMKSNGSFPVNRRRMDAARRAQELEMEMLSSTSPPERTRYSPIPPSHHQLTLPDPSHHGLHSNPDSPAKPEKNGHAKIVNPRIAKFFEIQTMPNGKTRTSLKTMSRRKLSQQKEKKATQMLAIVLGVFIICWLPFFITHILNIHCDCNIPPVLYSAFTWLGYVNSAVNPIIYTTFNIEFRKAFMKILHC
For assay [2], the target named is T2, Glutamate receptor ionotropic, AMPA (Rattus norvegicus, UniProt P19490+P19491+P19492+P19493). The experiment in a line: In vitro binding affinity at quisqualate binding site of quisqualate/AMPA glutamate receptors in rat brain membrane using [3H]- ]AMPA as radioligand. The format is cell membranes.
Assay [3] concerns the target Glutamate receptor ionotropic, kainate. Briefly: In vitro binding affinity at Ionotropic glutamate receptor ionotropic kainate in rat brain membrane using [3H]kainate as radioligand. In kind it is cell membranes.
Assay [4] concerns the target Muscarinic acetylcholine receptor. Briefly: In vitro binding affinity at muscarinic binding site receptors in rat brain membrane using [3H]QNB as radioligand. In kind it is cell membranes.
Assay [5] addresses T1, Adrenergic receptor beta. The experiment in a line: In vitro binding affinity at Beta adrenergic receptor in rat brain membrane using [3H]dihydroalprenolol as radioligand. In kind it is cell membranes.
Assay [6] deals with Glutamate receptor ionotropic, kainate. Briefly: In vitro binding affinity at Ionotropic glutamate receptor kainate in rat brain membrane using [3H]kainate as radioligand. In kind it is cell membranes.
The target in assay [7] is Muscarinic acetylcholine receptor. Briefly: In vitro binding affinity at Muscarinic acetylcholine receptor in rat brain membrane using [3H]QNB as radioligand. In kind it is cell membranes.
For assay [8], the target named is T2, Glutamate receptor ionotropic, AMPA. The experiment in a line: In vitro binding affinity at quisqualate binding site of quisqualate/AMPA glutamate receptors in rat brain membrane using [3H]AMPA as radioligand. In kind it is cell membranes.

SMILES strings stand for the structures.

D(1A) dopamine receptor, sequence (P18901 whole entry): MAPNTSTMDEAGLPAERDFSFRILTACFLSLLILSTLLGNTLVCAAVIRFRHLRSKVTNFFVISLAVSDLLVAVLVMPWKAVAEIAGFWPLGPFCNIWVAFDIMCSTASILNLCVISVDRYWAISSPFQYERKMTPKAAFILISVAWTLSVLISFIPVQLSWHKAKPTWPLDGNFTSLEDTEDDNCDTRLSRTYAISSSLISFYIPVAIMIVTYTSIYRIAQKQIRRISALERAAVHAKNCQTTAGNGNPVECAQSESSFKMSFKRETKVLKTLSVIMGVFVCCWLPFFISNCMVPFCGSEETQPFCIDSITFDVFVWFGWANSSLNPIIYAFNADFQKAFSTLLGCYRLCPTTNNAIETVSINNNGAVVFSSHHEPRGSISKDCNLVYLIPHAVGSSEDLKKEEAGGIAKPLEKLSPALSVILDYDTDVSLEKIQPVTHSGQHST

Regarding `CC(Cc1ccc(I)cc1)NCCCc1ccccc1` (centres undefined), the half-maximal inhibitory concentration (IC50) (in general, the midpoint of a concentration-inhibition curve) at Adrenergic receptor beta [1] is 5.57 µM; on D(1A) dopamine receptor, more than 10 µM; at D(2) dopamine receptor, 3.8 µM; in assay [2], more than 10 µM; in assay [3], more than 10 µM; in [4], more than 10 µM.
In the case of `c1ccc(CCCNC2CCc3ccccc3CC2)cc1`, the IC50 is more than 10 µM on Adrenergic receptor beta [5]; more than 10 µM at D(1A) dopamine receptor; 5.8 µM on D(2) dopamine receptor; more than 10 µM in [2]; more than 10 µM in [6]; 9.5 µM in assay [7].
Turning to `CC(Cc1ccc(Cl)c(Cl)c1)NCCCc1ccccc1` (centres undefined), the 50% inhibitory concentration (IC50) was 1.24 µM on Adrenergic receptor beta [5]; more than 10 µM on D(1A) dopamine receptor; 1.79 µM on D(2) dopamine receptor; more than 10 µM in [2]; more than 10 µM in assay [6]; 7.4 µM in assay [7].
For the molecule `COc1ccc(CC(C)NCCCc2ccccc2)cc1` (centres undefined), the half-maximal inhibitory concentration (IC50) at Adrenergic receptor beta [1] was 4.94 µM; on D(1A) dopamine receptor it was more than 10 µM; on D(2) dopamine receptor it was 9.32 µM; in [8], more than 10 µM; in assay [3] it was more than 10 µM; in assay [4] it was more than 10 µM.
